Reference: patent publication US8026282B2, “Phenoxyalkylcarboxylic acid derivatives in the treatment of irritable bowel syndrome” (Medicinova, Inc., priority 2004, dated 2011)

Experiments:
[1] = target: PLA2-I (Sus scrofa, UniProt P00592); assay: Biochemical assay PLA2-I; conditions: Pig
[2] = target: Melanocortin MC5 (Homo sapiens, UniProt P33032); assay: Biochemical assay Melanocortin MC5; type: binding; conditions: Melanocortin MC5, Hu; for Ki: value in parentheses
[3] = system: PDE4; assay: Biochemical assay PDE4; conditions: PDE4, Hu
[4] = system: PDE1; assay: Biochemical assay PDE1; conditions: PDE1, Bov
[5] = target: T1, Adrenergic α2B (Homo sapiens, UniProt P18089); assay: Biochemical assay Adrenergic α2B; type: binding; conditions: Hu; for Ki: value in parentheses
T1 sequence (P18089 1-450): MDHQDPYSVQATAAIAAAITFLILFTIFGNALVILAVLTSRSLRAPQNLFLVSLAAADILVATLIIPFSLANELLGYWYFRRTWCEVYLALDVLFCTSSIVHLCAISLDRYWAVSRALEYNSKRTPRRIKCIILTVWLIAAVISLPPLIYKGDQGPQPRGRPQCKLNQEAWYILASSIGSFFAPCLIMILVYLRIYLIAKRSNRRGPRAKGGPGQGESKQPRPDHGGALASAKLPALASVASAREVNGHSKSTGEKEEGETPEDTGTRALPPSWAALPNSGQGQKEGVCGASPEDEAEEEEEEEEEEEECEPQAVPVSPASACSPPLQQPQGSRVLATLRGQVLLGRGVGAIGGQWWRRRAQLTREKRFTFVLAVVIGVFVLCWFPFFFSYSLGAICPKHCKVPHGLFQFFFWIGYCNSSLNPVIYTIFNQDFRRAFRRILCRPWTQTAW

[6] = target: Adrenergic β3 (Homo sapiens, UniProt P13945); assay: Biochemical assay Adrenergic β3; type: binding; conditions: Adrenergic β3, Hu; for Ki: value in parentheses
Chain of Adrenergic β3 (P13945 whole entry): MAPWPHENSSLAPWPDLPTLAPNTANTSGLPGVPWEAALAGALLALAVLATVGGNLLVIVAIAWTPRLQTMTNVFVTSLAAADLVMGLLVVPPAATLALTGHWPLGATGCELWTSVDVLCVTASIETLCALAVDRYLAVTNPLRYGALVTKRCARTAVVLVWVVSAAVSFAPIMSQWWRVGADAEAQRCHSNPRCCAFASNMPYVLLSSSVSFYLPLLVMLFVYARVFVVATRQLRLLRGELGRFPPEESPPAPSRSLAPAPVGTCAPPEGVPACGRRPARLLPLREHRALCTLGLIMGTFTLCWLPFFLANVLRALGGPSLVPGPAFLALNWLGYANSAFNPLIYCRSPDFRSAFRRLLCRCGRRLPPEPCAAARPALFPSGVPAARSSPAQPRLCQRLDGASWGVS

[7] = target: Opiate δ (Homo sapiens, UniProt P41143); assay: Biochemical assay Opiate δ; type: binding; conditions: Hu; for Ki: value in parentheses
Chain of Opiate δ (P41143 whole entry): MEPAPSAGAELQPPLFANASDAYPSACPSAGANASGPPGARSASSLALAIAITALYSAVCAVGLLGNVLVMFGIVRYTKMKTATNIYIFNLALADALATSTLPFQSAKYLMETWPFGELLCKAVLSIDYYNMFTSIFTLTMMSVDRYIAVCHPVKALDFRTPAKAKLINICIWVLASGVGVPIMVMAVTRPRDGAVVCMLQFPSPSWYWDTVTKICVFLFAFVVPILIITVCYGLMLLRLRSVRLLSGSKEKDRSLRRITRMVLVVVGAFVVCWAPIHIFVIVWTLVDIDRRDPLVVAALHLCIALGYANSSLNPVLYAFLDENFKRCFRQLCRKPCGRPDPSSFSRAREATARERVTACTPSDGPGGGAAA

[8] = target: PDE2 (Homo sapiens, UniProt O00408); assay: Biochemical assay PDE2; conditions: PDE2, Hu
Chain of PDE2 (O00408 whole entry): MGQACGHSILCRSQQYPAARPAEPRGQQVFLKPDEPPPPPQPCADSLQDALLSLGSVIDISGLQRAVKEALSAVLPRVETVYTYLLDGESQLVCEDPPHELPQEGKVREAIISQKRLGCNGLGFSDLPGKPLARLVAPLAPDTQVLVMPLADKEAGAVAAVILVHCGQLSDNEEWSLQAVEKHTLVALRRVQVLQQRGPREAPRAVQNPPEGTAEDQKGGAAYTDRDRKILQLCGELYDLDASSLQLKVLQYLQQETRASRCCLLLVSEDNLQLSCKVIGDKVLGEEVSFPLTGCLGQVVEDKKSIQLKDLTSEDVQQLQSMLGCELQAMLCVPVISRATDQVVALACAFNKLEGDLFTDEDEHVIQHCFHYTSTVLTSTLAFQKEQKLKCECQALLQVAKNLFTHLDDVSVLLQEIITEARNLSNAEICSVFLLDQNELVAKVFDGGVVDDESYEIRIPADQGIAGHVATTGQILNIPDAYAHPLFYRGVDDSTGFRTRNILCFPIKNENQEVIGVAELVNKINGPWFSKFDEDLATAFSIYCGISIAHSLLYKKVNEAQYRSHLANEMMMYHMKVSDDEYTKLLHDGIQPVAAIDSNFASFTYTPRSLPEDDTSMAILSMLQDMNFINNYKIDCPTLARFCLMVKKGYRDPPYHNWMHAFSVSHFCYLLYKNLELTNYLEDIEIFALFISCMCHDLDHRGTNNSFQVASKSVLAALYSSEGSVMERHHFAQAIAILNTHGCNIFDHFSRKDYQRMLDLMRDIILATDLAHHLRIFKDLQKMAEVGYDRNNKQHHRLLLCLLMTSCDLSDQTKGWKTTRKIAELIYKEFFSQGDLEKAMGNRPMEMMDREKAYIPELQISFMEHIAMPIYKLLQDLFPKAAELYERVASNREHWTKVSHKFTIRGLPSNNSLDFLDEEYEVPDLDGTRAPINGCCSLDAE

[9] = target: T2, Thromboxane A2 (Homo sapiens, UniProt P21731); assay: Biochemical assay Thromboxane A2; type: binding; conditions: Thromboxane A2, Hu; for Ki: value in parentheses
T2 sequence (P21731 1-343): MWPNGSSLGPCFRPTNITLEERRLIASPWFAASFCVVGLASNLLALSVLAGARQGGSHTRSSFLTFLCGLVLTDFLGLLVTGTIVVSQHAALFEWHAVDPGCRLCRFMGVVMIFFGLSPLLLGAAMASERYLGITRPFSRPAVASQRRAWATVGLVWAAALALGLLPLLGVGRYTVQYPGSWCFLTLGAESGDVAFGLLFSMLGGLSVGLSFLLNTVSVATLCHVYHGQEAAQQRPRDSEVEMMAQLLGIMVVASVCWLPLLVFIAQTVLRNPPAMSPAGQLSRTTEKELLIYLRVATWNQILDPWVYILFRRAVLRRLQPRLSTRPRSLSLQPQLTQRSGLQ

[10] = target: T3, LTD4 (Cavia porcellus, UniProt Q2NNR5); assay: Biochemical assay LTD4; type: binding; conditions: LTD4, Gp; for Ki: value in parentheses
T3 sequence (Q2NNR5 1-340): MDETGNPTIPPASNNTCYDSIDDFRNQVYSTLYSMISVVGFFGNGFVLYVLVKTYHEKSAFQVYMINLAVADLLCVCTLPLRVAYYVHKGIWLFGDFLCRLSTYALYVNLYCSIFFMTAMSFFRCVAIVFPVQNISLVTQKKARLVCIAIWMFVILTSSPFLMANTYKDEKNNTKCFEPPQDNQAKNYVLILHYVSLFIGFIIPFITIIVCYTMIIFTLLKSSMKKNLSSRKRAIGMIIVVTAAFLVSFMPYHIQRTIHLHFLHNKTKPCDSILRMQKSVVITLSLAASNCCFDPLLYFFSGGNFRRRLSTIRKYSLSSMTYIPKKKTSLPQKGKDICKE

[11] = target: T4, 5-LO (Homo sapiens, UniProt P09917); assay: Biochemical assay 5-LO; conditions: Hu
T4 sequence (P09917 1-674): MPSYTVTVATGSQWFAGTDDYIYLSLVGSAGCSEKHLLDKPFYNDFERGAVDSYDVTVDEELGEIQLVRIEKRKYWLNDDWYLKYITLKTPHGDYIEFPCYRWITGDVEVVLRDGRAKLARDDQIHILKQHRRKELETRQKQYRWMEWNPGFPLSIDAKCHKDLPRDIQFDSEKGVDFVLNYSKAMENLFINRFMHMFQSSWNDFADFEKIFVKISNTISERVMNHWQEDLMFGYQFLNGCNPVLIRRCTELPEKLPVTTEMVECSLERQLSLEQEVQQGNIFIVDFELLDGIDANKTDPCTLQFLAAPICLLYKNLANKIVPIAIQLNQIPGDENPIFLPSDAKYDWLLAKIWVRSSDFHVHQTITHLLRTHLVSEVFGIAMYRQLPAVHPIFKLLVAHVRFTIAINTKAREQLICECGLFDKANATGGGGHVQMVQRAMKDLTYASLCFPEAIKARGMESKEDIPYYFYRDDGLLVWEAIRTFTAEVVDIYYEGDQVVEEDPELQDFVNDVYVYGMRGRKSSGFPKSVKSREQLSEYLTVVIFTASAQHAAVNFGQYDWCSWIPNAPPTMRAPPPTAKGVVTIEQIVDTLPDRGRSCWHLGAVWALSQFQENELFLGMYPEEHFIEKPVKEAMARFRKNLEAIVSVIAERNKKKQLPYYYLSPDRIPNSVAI

Chain of Melanocortin MC5 (P33032 whole entry): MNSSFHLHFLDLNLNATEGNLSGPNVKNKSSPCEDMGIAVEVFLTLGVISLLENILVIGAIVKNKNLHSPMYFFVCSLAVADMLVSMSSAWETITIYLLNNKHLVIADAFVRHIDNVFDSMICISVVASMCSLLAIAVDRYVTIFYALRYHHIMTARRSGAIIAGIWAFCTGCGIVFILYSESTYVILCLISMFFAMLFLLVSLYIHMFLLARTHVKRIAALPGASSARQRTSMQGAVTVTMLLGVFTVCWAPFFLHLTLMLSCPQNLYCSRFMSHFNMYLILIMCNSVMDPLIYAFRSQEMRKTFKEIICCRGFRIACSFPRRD
Chain of PLA2-I (P00592 23-146): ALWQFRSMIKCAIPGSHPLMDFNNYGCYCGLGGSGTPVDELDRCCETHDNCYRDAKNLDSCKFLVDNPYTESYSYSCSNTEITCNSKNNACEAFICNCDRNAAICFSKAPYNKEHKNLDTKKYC

| IC50 [1] [µM] | IC50 [2] [nM] | Ki [2] [nM] | IC50 [3] [nM] | IC50 [4] [nM] | IC50 [5] [nM] | Ki [5] [nM] | IC50 [6] [nM] | Ki [6] [nM] | IC50 [7] [nM] | Ki [7] [nM] | IC50 [8] [µM] | IC50 [9] [µM] | Ki [9] [nM] | IC50 [10] [µM] | Ki [10] [nM] | IC50 [11] [nM] | SMILES |
| --- | --- | --- | --- | --- | --- | --- | --- | --- | --- | --- | --- | --- | --- | --- | --- | --- | --- |
| 142 | 2580 | 2420 | 639 | 741 | 2810 | 1280 | 4630 | 3470 | 1040 | 365 | 3.43 | 3.37 | 2200 | 6.36 | 3180 | 1110 | CCCc1c(SCCCOc2ccc(C(C)=O)c(OCCCC(=O)O)c2CCC)ccc(C(C)=O)c1O [Compound 1, 4-[6-acetyl-3-[3-(4-acetyl-3-hydroxy-2-propylphenylthio)propoxy]-2-propylphenoxy]butyric acid] |
| 248 | 1820 | 1710 | 303 | 3080 | 1600 | 732 | 1100 | 821 | 3030 | 1070 | 3.38 | 3.89 | 2540 | 5.35 | 2670 | 1610 | CCCc1c(SCCCOc2ccc(C(C)O)c(OCCCC(=O)O)c2CCC)ccc(C(C)=O)c1O (stereo not shown) [Compound 2] |
